Holding throughout (assay type): cell-based
Assay [1] has as its target T1, human V1aR (Homo sapiens, UniProt P37288).
T1 construct: expressed in transfected cells
Kind of assay: Inhibition activity on human V1aR (Fluo-4 calcium assay, HEK293/human V1aR stably transfected cells, vasopressin 3 nM). The note with it: calcium signal. The protocol: The inhibition effect of the compounds of the present invention on the activity of human V1aR protein expressed in HEK293/human V1aR stably transfected cells was determined by the following experimental method:
The pcDNA3.1-V1aR plasmid was transferred into HEK293 cells with the Lipofectamine® 3000 transfection reagent; G418 was added on the next day to screen, and monoclonal cell lines were selected.
(§1) HEK293/human V1aR stably transfected cells were inoculated in a 96-well plate with an inoculation density of 25,000 cells/well one day in advance. On the next day, a loading buffer containing Fluo-4 dye was formulated using the reagents in the Fluo-4 NW calcium assay kit, and the culture medium was then removed; 100 μl of the loading buffer containing Fluo-4 dye were added to each well, and the plate was incubated at 37° C. for 30 minutes. After that, the plate was moved to room temperature and equilibrated for 10 minutes. The compounds were formulated into concentration gradients of 10^6, 10^5, 10^4, 10^3, 10^2 and 10^1 nM. 1 μl of the compounds in each concentration was added to each well, and the plate was incubated at room temperature for 10 minutes. […] IC50 values of the compounds were calculated by Graphpad prism software using fluorescence signals corresponding to different concentrations.
The inhibition activity of the compounds of the present invention on human V1aR was determined by the above test, and the obtained IC50 values are shown in Table 2.

The target in assay [2] is T2, human V1bR (Homo sapiens, UniProt P47901).
T2 construct: expressed in transfected cells; host or cells: HEK293 (G418-selected pool)
T2 sequence (P47901 1-424): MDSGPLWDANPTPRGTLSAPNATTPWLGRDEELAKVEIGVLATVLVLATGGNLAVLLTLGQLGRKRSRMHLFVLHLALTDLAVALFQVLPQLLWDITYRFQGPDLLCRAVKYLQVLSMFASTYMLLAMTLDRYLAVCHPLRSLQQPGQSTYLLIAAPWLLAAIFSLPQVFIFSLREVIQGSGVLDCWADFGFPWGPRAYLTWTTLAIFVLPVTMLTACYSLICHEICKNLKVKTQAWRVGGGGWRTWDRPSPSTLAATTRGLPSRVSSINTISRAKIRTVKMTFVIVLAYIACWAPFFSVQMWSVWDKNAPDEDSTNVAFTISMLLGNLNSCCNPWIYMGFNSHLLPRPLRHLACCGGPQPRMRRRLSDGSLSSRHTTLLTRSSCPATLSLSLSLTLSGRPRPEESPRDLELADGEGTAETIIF
Put plainly: Inhibition activity on human V1bR (Fluo-4 calcium assay, HEK293/human V1bR pool cells, vasopressin 3 nM). The note with it: calcium signal. The protocol:
The inhibition effect of the compounds of the present invention on the activity of human V1bR protein expressed in HEK293/human V1bR cells was determined by the following experimental method:
The pcDNA3.1-V1bR plasmid was transferred into HEK293 cells with the Lipofectamine® 3000 transfection reagent; G418 was added on the next day, and the HEK293/human V1bR pool cell lines were obtained.
as §1, with “V1bR pool” for “V1aR stably transfected”

For assay [3], the target named is T3, human V2R (Homo sapiens, UniProt P30518).
T3 construct: expressed in transfected cells; host or cells: HEK293 (G418-selected pool)
T3 sequence (P30518 whole entry): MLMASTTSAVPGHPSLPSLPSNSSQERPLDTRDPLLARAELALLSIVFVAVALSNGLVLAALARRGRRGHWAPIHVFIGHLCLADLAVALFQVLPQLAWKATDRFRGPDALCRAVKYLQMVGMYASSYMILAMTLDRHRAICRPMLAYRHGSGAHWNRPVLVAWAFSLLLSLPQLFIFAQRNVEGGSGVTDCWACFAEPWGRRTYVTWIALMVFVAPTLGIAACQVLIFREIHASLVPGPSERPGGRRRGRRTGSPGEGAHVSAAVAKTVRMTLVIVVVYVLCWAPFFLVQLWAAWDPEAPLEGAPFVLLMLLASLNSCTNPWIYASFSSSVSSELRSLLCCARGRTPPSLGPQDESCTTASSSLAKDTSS
Kind of assay: Inhibition activity on human V2R (cAMP HTRF assay, HEK293/human V2R pool cells, vasopressin). The protocol:
The inhibition effect of the compounds of the present invention on the activity of human V2R protein expressed in HEK293/human V2R cells was determined by the following experimental method:
The pcDNA3.1-V2R plasmid was transferred into HEK293 cells with the Lipofectamine® 3000 transfection reagent; G418 was added on the next day, and the HEK293/human V2R pool cell lines were obtained.
HEK293/human V2R pool cells were digested with the cell dissociation solution (enzyme-free), thereby dissociating the cells from the cell culture dish into individual cells. After completion, the cell solution was blown well, and centrifuged to remove the supernatant. The cells were re-suspended in the test buffer 1 (1×HBSS+20 mM HEPES+0.1% BSA) and counted. The cell density was adjusted to 1250 cells/5 μl, i.e., 2.5*10^5/ml.
The compounds were formulated into a series of concentrations of 20 mM, 6.67 mM, 2.22 mM, 0.74 mM, 0.25 mM, 0.08 mM, 27.4 μM, 9.14 μM, 3.05 μM, 1.02 μM, 0.34 μM and 0 μM (DMSO) with pure DMSO. The compounds were then formulated into a 4-fold use concentration with the test buffer 2 (test buffer 1+1 mM IBMX).
Agonist: 460 μM vasopressin was used as the mother liquor, formulated as a 2 μM solution with DMSO, which was then diluted to a 0.5 nM solution with the test buffer 2.
Standard: The first point was 20 μl of a stock solution (2848 nM), which was diluted successively to a total of eleven concentrations in a 4-fold concentration gradient with the test buffer 1 from the second point.
1. The well-mixed cells were added to a 384-well plate (5 μl/well) without changing the tip.
2. The test compounds and positive compound formulated were added (2.5 μl/well), and the tips were changed.
3. The plate was centrifuged at 1000 rpm for 1 min, shaken for 30 sec to mix well, and incubated at room temperature for 30 min.
4. The standard curve wells were added with the test buffer 2 (5 μl/well).
5. The agonist formulated was added (2.5 μl/well), and the tips were changed; the plate was centrifuged at 1000 rpm for 1 min, shaken for 30 sec to mix well, and incubated at room temperature for 30 min.
6. cAMP-d2 (a component in the cAMP dynamic 2 kit) and Anti-cAMP-Eu-Cryptate (a component in the cAMP dynamic 2 kit) were formulated in the dark, which were then mixed well with cAMP lysate (a component in the cAMP dynamic 2 kit) in a ratio of 1:4. Each well was added with the formulated cAMP-d2 solution (5 μl/well), followed by addition of Anti-cAMP-Eu-Cryptate (5 μl/well). The plate was shaken for 30 sec to mix well, and incubated in the dark at room temperature for 1 h.
4) Plate reading: The HTRF signals were read by the PheraStar multi-function microplate reader.
The data in this test was processed using the data processing software Graphpad Prism.
The inhibition activity of the compounds of the present invention on human V2R was determined by the above test, and the obtained IC50 values are shown in Table 4.

T1 sequence (P37288 whole entry): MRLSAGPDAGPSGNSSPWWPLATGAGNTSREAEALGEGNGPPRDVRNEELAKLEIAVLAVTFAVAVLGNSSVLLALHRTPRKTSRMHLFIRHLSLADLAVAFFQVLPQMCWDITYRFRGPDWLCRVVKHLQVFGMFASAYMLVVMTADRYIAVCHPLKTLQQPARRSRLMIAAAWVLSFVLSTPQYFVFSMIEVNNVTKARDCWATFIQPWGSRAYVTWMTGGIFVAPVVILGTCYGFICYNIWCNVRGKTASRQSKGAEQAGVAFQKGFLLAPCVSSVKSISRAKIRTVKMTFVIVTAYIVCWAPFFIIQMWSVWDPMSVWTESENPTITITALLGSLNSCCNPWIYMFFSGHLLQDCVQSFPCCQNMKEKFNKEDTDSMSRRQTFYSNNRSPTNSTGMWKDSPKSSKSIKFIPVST

Consider `COc1ccc(-n2c(C)nnc2N2C[C@@H]3C[C@]3(c3ccc(F)cc3Cl)C2)cn1` [Example 7, (1S,5R)-1-(2-Chloro-4-fluorophenyl)-3-(4-(6-methoxypyridin-3-yl)-5-methyl-4H-1,2,4-triazol-3-yl)-3-azabicyclo[3.1.0]hexane], for which the IC50 was 2 µM in assay [1], 12.4 µM in assay [2] and 90 µM in assay [3].

A word on the IC50: it is the midpoint of a concentration-inhibition curve.

These data come from patent publication US20210040073A1, “AZABICYCLO-SUBSTITUTED TRIAZOLE DERIVATIVE, PREPARATION METHOD THEREOF, AND APPLICATION OF SAME IN MEDICINE” (Jiangsu Hengrui Medicine Co., Ltd., priority 2016, published 2021).
